Source: patent US11680085B2, “Cyclic peptides for protection against respiratory syncytial virus” (VIROMETIX AG, priority 2017, dated 2023)

Tested on: RSV A/Tracy
Assay: Micro-Neutralization Test (MNT)
Format: cell-based, respiratory syncytial virus
Conditions: 40 μg/ml mAb in test solution
Procedure: In order to assess the neutralization capacity of the mAb at 40 μg/ml against RSV A/Tracy a Micro-Neutralization Test (MNT) was performed. A 40 μg/ml Palivizumab stock was taken as positive control and 40 μg/ml stock of an isotype-matched mAb as negative control (Table 10).

## Palivizumab
  RSV A, Tracy MN titer (log2): 5.0 log2
